# Measurements: the supplement of paper PMC5579334
# Assays:
# HS-PSS [1] = experiment: drug sensitivity score (DSS, CellTox-Green cytotoxicity, 72 h) (DSS (dimensionless)); higher = more cytotoxic; extreme values may be limits of the assay
# Outline: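 MPNST cell lines and primary human Schwann cells were incubated 72 h at 37 °C in 384-well plates holding five 10-fold compound dilutions. CellTox-Green was added before seeding at a final 1:1000 dilution and reported fluorescence from DNA released by disrupted cells. Signals were scaled to vehicle and positive-control wells, and cultures failing plate quality control were dropped. Drug sensitivity score and relative IC50 come from four-parameter logistic fits, with IC50 censored at the top concentration.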
# YST-1 [2] = experiment: % inhibition of CellTiter-Glo viability at highest tested concentration (72 h), relative to DMSO and benzethonium chloride controls; higher = more inhibition
# Outline: (§1)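 MPNST cell lines and primary human Schwann cells (750–1000 cells per well) went into 384-well plates preprinted with each compound at five concentrations in 10-fold steps. Plates were incubated 72 h at 37 °C, 5% CO2. Viability was read as CellTiter-Glo ATP luminescence, scaled between vehicle and positive-control wells, with duplicates averaged where present. Percent inhibition is at the top concentration; drug sensitivity score and relative IC50 (censored at top concentration) come from four-parameter logistic fits.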
# HS-PSS [3] = experiment: as above
# Outline: as §1
# HS-Sch-2 [4] = experiment: as above
# Outline: as §1
# YST-1 [5] = experiment: drug sensitivity score (DSS, CellTiter-Glo viability, 72 h) (DSS (dimensionless)); higher = more sensitive; extreme values may be limits of the assay
# Outline: as §1
# HS-PSS [6] = experiment: as above
# Outline: as §1
# HS-Sch-2 [7] = experiment: as above
# Outline: as §1
Structure (SMILES),drug sensitivity score (HS-PSS [1]),% inhibition (YST-1 [2]) [%],% inhibition (HS-PSS [3]) [%],% inhibition (HS-Sch-2 [4]) [%],drug sensitivity score (YST-1 [5]),drug sensitivity score (HS-PSS [6]),drug sensitivity score (HS-Sch-2 [7])
C[C@@H]1CN(CC(=O)Nc2ccc3c(c2)Cc2cccc(-c4cc(=O)cc(N5CCOCC5)o4)c2S3)C[C@H](C)O1 (max concentration tested 25000 nM),0,41.4,45.7,97.9,1.74,1.79,8.7
Cc1ccc2nc(CN(CCN(Cc3nc4ccc(C)cc4[nH]3)Cc3nc4ccc(C)cc4[nH]3)Cc3nc4ccc(C)cc4[nH]3)[nH]c2c1 (max concentration tested 50000 nM),0.03,67.5,74.3,80.3,6.33,7.02,7.29
Cc1nn(C)c(COc2ccc(N3CCN(S(=O)(=O)N(C)C)CC3)cc2)c1-c1cccc2c(CCCOc3cccc4ccccc34)c(C(=O)O)n(CCN3CCOCC3)c12 (max concentration tested 50000 nM),1.47,101,90.5,101,6.72,4.52,5.73
O=C1c2ccccc2-c2n[nH]c3cccc1c23 (max concentration tested 100000 nM),0.2,34.2,43.2,27.4,2.42,4.26,2.29
O=c1cc(N2CCOCC2)oc2c(-c3ccccc3)cccc12 (max concentration tested 100000 nM),2.67,96.1,69.6,72.3,12,7.1,7.3
Cn1cc(C[C@@H](N)C(=O)O)c2ccccc21 [1-methyl-D-tryptophan] (max concentration tested 5000 nM),0,-5.86,6.24,2.88,0,0,0
CCCCC/C=C/C=C1/C(=O)C=C[C@@H]1C/C=C\CCCC(=O)O [15D-PGJ2] (max concentration tested 3000 nM),0,-5.83,3.17,16.9,0,0,0.58
Cc1ccccc1C(C(=O)NC1CCCCC1)N(C(=O)Cn1ccnc1C)c1cccc(F)c1 (configuration not stated) [AGI-5198] (max concentration tested 10000 nM),0,1.43,11.5,4.74,0,0.2,0.6
O=C(Nc1cccc(C(F)(F)F)c1)Nc1cc(S(=O)(=O)NC2CC2)ccc1-c1ccsc1 [AGI-6780] (max concentration tested 10000 nM),0,12.9,24.7,28.6,0.34,0.86,2.42
COc1ccc2c(OCc3nnc4ccc(-c5ccccc5)nn34)ccnc2c1 [AMG-208] (max concentration tested 2500 nM),0,-2.81,9.98,7.53,0,0.98,0
CC(C)[C@@H](CS(=O)(=O)C(C)C)N1C(=O)[C@@](C)(CC(=O)O)C[C@H](c2cccc(Cl)c2)[C@H]1c1ccc(Cl)cc1 [AMG-232] (max concentration tested 1000 nM),0,96.6,22.4,-6.16,8.01,0.61,0
Cc1csc(-c2nnc(Nc3ccc(Oc4ncccc4-c4ccnc(N)n4)cc3)c3ccccc23)c1 [AMG-900] (max concentration tested 1000 nM),0,29.8,19.6,30,9.1,0.8,1.27
CC1CCC(n2c3cnccc3c3cnc(Nc4ccc5c(n4)CCN(C(=O)CO)C5)nc32)CC1 (configuration not stated) [AMG-925] (max concentration tested 1000 nM),0,6.95,9.07,12.2,0.02,0,0.03
COCC1(CO)C(=O)C2CCN1CC2 (configuration not stated) [APR-246] (max concentration tested 10000 nM),0,-11,13.1,5,0,0.39,0
CC(C)[C@H](C(=O)Nc1ccc(C(=O)NO)cc1)c1ccccc1 [AR-42] (max concentration tested 10000 nM),5,100,88.1,101,17.8,10,10.9
COc1cc(N2CCC(N3CCN(C)CC3)CC2)ccc1Nc1ncnc(Nc2ccccc2S(=O)(=O)C(C)C)n1 [ASP3026] (max concentration tested 10000 nM),0,-4.61,2.45,4.73,0,0,0
O=C(NC1CCNCC1)c1n[nH]cc1NC(=O)c1c(Cl)cccc1Cl [AT7519] (max concentration tested 10000 nM),1.85,98.7,73.5,99.7,26,15.3,17.6
COc1cc(N2CCN(C)CC2)ccc1Nc1nccc(-c2cn(C)c3cnccc23)n1 [AZ191] (max concentration tested 10000 nM),1.42,76.4,80.5,95.6,3.96,5.3,5.07

Structure (SMILES),drug sensitivity score (HS-PSS [1]),% inhibition (YST-1 [2]) [%],% inhibition (HS-PSS [3]) [%],% inhibition (HS-Sch-2 [4]) [%],drug sensitivity score (YST-1 [5]),drug sensitivity score (HS-PSS [6]),drug sensitivity score (HS-Sch-2 [7])
CC(C)Oc1cc(Nc2nc(N[C@@H](C)c3ccc(F)cn3)ncc2Cl)n[nH]1 [AZ-23] (max concentration tested 1000 nM),0,26.5,12.4,21.1,1.96,0.29,1.29
N[C@@H]1CCCN(c2c(/C=C3\SC(=O)NC3=O)cccc2-c2ccccc2)C1 [AZD1208] (max concentration tested 10000 nM),0,38.7,-5.48,-3.67,7.54,0,0
CN(C)C(=O)c1ccc(S(=O)(=O)c2ccc(NC(=O)[C@@](C)(O)C(F)(F)F)c(Cl)c2)cc1 [AZD7545] (max concentration tested 10000 nM),0,2.29,57,17.4,0,2.45,0.76
N#Cc1ccc2[nH]c(O)c(-c3ccc(CN4CCOCC4)cn3)c2c1 [AZD-1080] (max concentration tested 10000 nM),0,4.49,43.5,77.1,0,2.89,3.74
NC1(C(=O)N[C@@H](CCO)c2ccc(Cl)cc2)CCN(c2ncnc3[nH]ccc23)CC1 [AZD-5363] (max concentration tested 10000 nM),0,56.9,20.3,66.5,4.35,0.45,3.33
Cc1ncc(-c2ccnc(Nc3ccc(S(C)(=O)=O)cc3)n2)n1C(C)C [AZD-5438] (max concentration tested 10000 nM),0.3,99.2,72,100,9.62,12.4,8.28
Cc1cc([C@@H](C)Nc2ccccc2C(=O)O)c2nc(N3CCOCC3)cc(=O)n2c1 [AZD-6482] (max concentration tested 2500 nM),0,17.1,9.25,0.36,0.53,0,0
C[C@@H](Nc1cc(F)cc(F)c1)c1cc(C(=O)N(C)C)cc2c(=O)cc(N3CCOCC3)oc12 [AZD-8186] (max concentration tested 1000 nM),0,28.9,-3.47,-0.99,1.06,0,0
Cc1cc(C(=O)NOCCO)c(Nc2ccc(I)cc2F)n(C)c1=O [AZD-8330] (max concentration tested 10000 nM),0,3.34,51.1,53.5,0,8.85,11.6
CCN1CCN(Cc2ccc(Nc3ncc(F)c(-c4cc(F)c5nc(C)n(C(C)C)c5c4)n3)nc2)CC1 [Abemaciclib] (max concentration tested 2500 nM),0.89,28.3,22,31.6,6.03,1.78,1.05
CN(C)Cc1c(C(=O)NCCOc2ccc(C(=O)NO)cc2)oc2ccccc12 [Abexinostat] (max concentration tested 10000 nM),7.74,101,96.2,101,24.9,16.5,20.5
Cn1ncc(Cl)c1-c1cc(C(=O)N[C@H](CN)Cc2cccc(F)c2)sc1Cl [Afuresertib] (max concentration tested 1000 nM),0,32,13.3,1.85,1.39,0.07,0
COc1cccc2c1C(=O)c1c(O)c3c(c(O)c1C2=O)C[C@@](O)(/C(CO)=N/NC(=O)CCCCCN1C(=O)C=CC1=O)C[C@@H]3O[C@H]1C[C@H](N)[C@H](O)[C@H](C)O1 [Aldoxorubicin] (max concentration tested 1000 nM),2.15,101,97.2,101,14.4,9.01,11
CCc1cc2c(cc1N1CCC(N3CCOCC3)CC1)C(C)(C)c1[nH]c3cc(C#N)ccc3c1C2=O [Alectinib] (max concentration tested 1000 nM),0,17.5,42.8,2.24,0.28,7.01,0
Cc1nc(NC(=O)N2CCC[C@H]2C(N)=O)sc1-c1ccnc(C(C)(C)C(F)(F)F)c1 [Alpelisib] (max concentration tested 2500 nM),0,63.6,13,21.2,7.32,0.35,1.18
COc1cc(NS(C)(=O)=O)ccc1Nc1c2ccccc2nc2ccccc12 [Amsacrine] (max concentration tested 10000 nM),1.27,86.6,55,81.6,15.6,5.76,11.1
S=C(NCc1ccc2c(c1)OCO2)N1CCN(c2ncnc3c2oc2ccccc23)CC1 [Amuvatinib] (max concentration tested 10000 nM),0,31.3,83.6,86.5,1.22,9.62,6.77
N#CC1(c2ccc(NC(=O)c3cccnc3NCc3ccncc3)cc2)CCCC1 [Apatinib] (max concentration tested 10000 nM),0,18.9,11.6,-2.67,1.19,0,0
